# Measured values as given in patent publication US10968214B2, “KRas G12C inhibitors” (Eli Lilly and Company, priority 2018, dated 2021).
# pIC50: −log10 of the molar value. Like-named read-outs stand apart in the source and are kept apart here.
# Legend:
# H358 xenograft = experiment: Anti-tumor growth activity, lung cancer H358 xenograft mouse model; format: in vivo; settings: for Tumor Growth Inhibition (%) or Regression (−%): 28 Day, negative = regression
# Protocol: To evaluate in vivo target inhibition and anti-tumor efficacy of a compound, Human lung cancer cells, H358 or H2122 are implanted into nude mice xenograft tumor models. Either H358 or H2122 cells (10×10^6 in a 1:1 Matrigel® mix, 0.2 mL total volume) are implanted by subcutaneous injection in hind leg of nude female mice (Harlan Laboratories). A total of 5 mice each group are used for efficacy study, and a total of 3-4 mice each group are used for target engagement and PD study. Treatment is initiated with oral administration (gavage) of a test compound or vehicle (20% Captisol®, 25 mM phosphate, pH 2.0 in 0.2 mL volume when the tumor size reaches approximately […]. Tumor growth and body weight are monitored over time to evaluate efficacy and signs of toxicity. Bidimensional measurements of tumors are performed twice a week and tumor volumes are calculated based on mid-axis length and mid-axis width. Tumor volume data are transformed to a log scale to equalize variance across time and treatment groups. The log volume data are analyzed with a two-way repeated measures analysis of variance by time and treatment using the mixed procedures in SAS software (version 8.2). The correlation model for the repeated measures is spatial power. Treated groups are compared to the control group at each time point. The mixed procedure is also used separately for each treatment group to calculate adjusted means and standard errors at each time point. Both analyses account for the autocorrelation within each animal. The adjusted means and standard errors are plotted for each treatment group versus time.
# H358 lung tumor cells (10×10^6) are implanted by subcutaneous injection in hind leg of nude female mice (Taconic Biosciences).
# UM-UC-3 = experiment: Combination 4 day growth assay (Cell TiterGlo), UM-UC-3; format: cell-based; settings: Homo sapiens, UMUC3, 96 h, single treatment, read-out: Absolute IC50
# Protocol: (§1) Cell lines for this study are obtained from ATCC and grown under ATCC recommended conditions, except for LXFA-983L, which is obtained from Oncotest/Charles Rivers Laboratories, Wilmington, Mass. and D122-96, which is obtained from L. Eisenbach (Weizman Institute of Science, Rehovot, Israel)—both grown under recommended conditions. […] The proliferation assay is performed as a 4 day growth assay using Cell TiterGlo® as the readout. Briefly, cells are plated in 96-well cell culture plates and allowed to adhere overnight at 37° C. The following day, cells are treated with compounds, either single treatments or combination treatments. First, the testing compounds are serially diluted in DMSO, followed by dilution into media as a 5× concentration with 1% DMSO, and finally added to cells in media to dilute to 1×. The cells are incubated at 37° C. for 4 more days. At the end of the incubation period, Cell TiterGlo® reagent is mixed and added to the wells. After 10 minutes, the luminescence is read by a Perkin Elmer Envision instrument. Absolute IC50 values generated by a 4-parameter logistics model for the single and combination treatments are generated, followed by combination indexes for each combination treatment and cell line. The combination IC50 values are adjusted based on the total concentration of each compound when added together. […] The combination index (CI) measures the degree to which the potency of a combination therapy differs from the expected-if-additive potency and is based on the Loewe definition of additivity.
# (§2) [formula] Where • CAy and CBy are the concentrations of therapies A and B that produce an effect, y, when given in combination • ICAy and ICBy are the concentrations of A and B that produce an effect, y, when given individually The biological interpretation of the combination index is as follows: synergistic if the combination index <0.5, additive if the combination index is between 0.5 and 2, and antagonistic if the combination index is >2.
# H23 = experiment: Combination 4 day growth assay (Cell TiterGlo), H23; format: cell-based; settings: Homo sapiens, NCI-H23, 96 h, single treatment, read-out: Absolute IC50
# Protocol: as §1, §2
# A427 = experiment: CellTiterGlo Cell Proliferation Assay, A427; format: cell-based; settings: Homo sapiens, A-427, KRas G12D, lung, 96 hr
# Protocol: (§3) A panel of tumor cell lines harboring KRas G12C or other KRas mutations are collected (Table 6). All cell lines are from ATCC or other sources indicated.
# (§4) Typically cells are cultured in RPMI1640 or Dulbecco's modified Eagle's medium (DMEM, GIBCO) supplemented with 10% FBS (GIBCO, Invitrogen). For 2D culture cells (4×10^3/well) maintained in growth medium described above, are plated onto 96 well tissue culture plates Corning® Cat. 3603) a day before the treatment. For 3D culture 8000 cells/well are seeded onto 96 well ultra-low attachment tissue culture plates (Corning, #3474). The cells are treated compound for 96 hr, and then are analyzed for viability using the CellTiterGlo® Luminescent Cell Viability Assay® (Promega #G7572 for 2D and Promega #G9683 for 3D cultures) according to manufacturer's instructions and an EnVision™ plate reader. Nonlinear regression and sigmoidal dose-response curves are used to calculate the half maximal inhibitory concentration (IC50) with GraphPad Prism 4® software.
# H2030 = experiment: CellTiterGlo Cell Proliferation Assay, H2030; format: cell-based; settings: Homo sapiens, NCI-H2030, KRas G12C, Lung, 96 hr
# Protocol: as §3, §4
# HCC44 xenograft = experiment: Anti-tumor growth activity, HCC44 lung xenograft; format: in vivo; settings: 28 Day, negative = regression
# H2122 = experiment: Combination 4 day growth assay (Cell TiterGlo), H2122; format: cell-based; settings: Homo sapiens, NCI-H2122, 96 h, single treatment, read-out: Absolute IC50
# Protocol: as §1, §2
# LXFA-983L = experiment: Combination 4 day growth assay (Cell TiterGlo), LXFA-983L; format: cell-based; settings: LXFA 983L, 96 h, single treatment, read-out: Absolute IC50
# Protocol: as §1, §2
# H1373 xenograft = experiment: Anti-tumor growth activity, H1373 lung xenograft; format: in vivo; settings: 28 Day, negative = regression
# [1] = read-out: IC50 (μM) in 2 D cell proliferation
# [2] = read-out: IC50 (μM) in 3 D spheroid cell proliferation
smiles,measurement,setting,value
"C=CC(=O)N1CCN(c2ncnc3c(F)c(-c4ccc(F)c5sc(N)nc45)c(Cl)cc23)CC1 [Example 1, 1-{4-[7-(2-Amino-7-fluoro-1,3-benzothiazol-4-yl)-6-chloro-8-fluoroquinazolin-4-yl]piperazin-1-yl}prop-2-en-1-one]",Tumor Growth Inhibition (%) or Regression (−%),"H358 xenograft; H358 Lung, 10 mg/kg BID, oral",−1.98%
same,Tumor Growth Inhibition (%) or Regression (−%),"H358 xenograft; H358 Lung, 10 mg/kg QD, oral",42.7%
same,Tumor Growth Inhibition (%) or Regression (−%),"H358 xenograft; H358 Lung, 30 mg/kg BID, oral",−74.35%
same,Tumor Growth Inhibition (%) or Regression (−%),"H358 xenograft; H358 Lung, 30 mg/kg QD, oral",−33.98%
same,In Vivo Anti-Tumor Activities,"H358 xenograft; H358 Lung, Example 1 30 mg/kg QDx28",−33.4
same,animal body weight loss,"H358 xenograft; H358 xenograft mice, 10 or 30 mg/kg once or twice daily for 28 days, oral",No significant animal body weight loss was observed
same,pIC50,UM-UC-3,5.74
same,pIC50,H23,6.63
same,IC50,A427; [1],10.1 µM
same,IC50,A427; [2],18.6 µM
same,IC50,H2030; [1],6.88 µM
same,IC50,H2030; [2],0.003 µM
same,Tumor Growth Inhibition (%) or Regression (−%),HCC44 xenograft; 15 mg/kg BID,93.4%
same,Tumor Growth Inhibition (%) or Regression (−%),HCC44 xenograft; 30 mg/kg BID,−16.5%
same,Tumor Growth Inhibition (%) or Regression (−%),HCC44 xenograft; 30 mg/kg QD,85.4%
same,pIC50,H2122,5.54
same,pIC50,LXFA-983L,5.59
same,Tumor Growth Inhibition (%) or Regression (−%),H1373 xenograft; 15 mg/kg BID,−60%
same,Tumor Growth Inhibition (%) or Regression (−%),H1373 xenograft; 30 mg/kg BID,−71.6%
same,Tumor Growth Inhibition (%) or Regression (−%),H1373 xenograft; 30 mg/kg QD,−52.4%
